{"source": "patent EP0589874B1", "about": "“USE OF (S)(+)-2-ETHOXY-4-[N-[1-(2-PIPERIDINOPHENYL)-3-METHYL-1-BUTYL]AMINOCARBONYLMETHYL]BENZOIC ACID FOR THE PREPARATION OF A LONGLASTING ANTIDIABETIC MEDICAMENT” (Boehringer Ingelheim Pharma KG, priority 1991, dated 1993)", "key": {"[1]": {"tested_on": "weiblichen Ratten", "assay": "Blood-glucose-lowering effect in female rats", "assay_type": "in vivo, Ratte", "details": "for blutzuckersenkende Wirkung: female rats", "from_the_text": "Die beiden Enantiomeren dieser Verbindung, nämlich (S)(+)-2-Äthoxy-4-[N-[1-(2-piperidino-phenyl)-3-methyl-1-butyl] aminocarbonylmethyl]-benzoesäure (Code-Nr.: AG-EE 623 ZW) und (R)(-)-2-Äthoxy-4-[N-[1-(2-piperidino-phenyl)-3-methyl-1-butyl]aminocarbonylmethyl]-benzoesäure (Code-Nr.: AG-EE 624 ZW), wurden auf ihre blutzuckersenkende Wirkung an weiblichen Ratten geprüft."}, "[2]": {"design": "species or system Menschen", "details": "in vivo", "procedure": "(§1) Abbildung 1 gibt hierbei die Plasma-Konzentration von AG-EE 623 ZW und AG-EE 624 ZW nach 1,0 mg i.v. AG-EE 388 ZW und Abbildung 2 die Plasma-Konzentration von AG-EE 623 ZW und AG-EE 624 ZW nach 1,0 mg p.o. (Lösung) AG-EE 388 ZW jeweils an 12 freiwilligen männlichen Probanden wieder. […] Dies wirkt sich z.B. bei Applikation einer Tablette mit 2 mg AG-EE 388 ZW bzw. einer Tablette mit 1 mg AG-EE 623 ZW an 12 bzw. 6 Probanden so aus, daß die Maximal-Konzentrationen 84 ± 25 bzw. 28 ± 18 ng/ml sowie die Konzentrationen nach 4 Stunden 19 ± 8 bzw. 0,7 ± 1,0 ng/ml, nach 5 Stunden 13 ± 6 bzw. 0,3 ± 0,7 ng/ml und nach 6 Stunden 10 ± 6 bzw. 0,3 ± 0,7 ng/ml betragen."}, "[3]": {"assay": "Plasma concentrations in volunteers after one tablet of racemate or (S)-enantiomer", "assay_type": "in vivo, Menschen", "details": "human, po; for concentration at 4 h: read-out: Konzentrationen nach 4 Stunden; for concentration at 5 h: read-out: Konzentrationen nach 5 Stunden; for concentration at 6 h: read-out: Konzentrationen nach 6 Stunden; for Cmax: read-out: Maximal-Konzentrationen", "procedure": "as §1"}, "[4]": {"assay_type": "in vivo, Menschen", "from_the_text": "Auf Grund dieser Ergebnisse an der Ratte erscheint für den Menschen die ausschließliche Verwendung von AG-EE 623 ZW geboten, wodurch die Dosis im Vergleich zur AG-EE 388 ZW-Dosis um 50 % reduziert werden kann. […] Darüber hinaus wurde jedoch bei den Human-Studien gefunden, daß AG-EE 623 ZW überraschende pharmakokinetische Eigenschaften aufweist, die auf Grund der AG-EE 388 ZW-Daten nicht vorhersehbar waren. AG-EE 623 ZW zeigt somit überraschende therapeutische Vorteile gegenüber dem Racemat AG-EE 388 ZW."}, "[5]": {"tested_on": "Ratten", "assay": "Acute oral toxicity in rats, single dose, 14 days observation", "assay_type": "in vivo"}, "[6]": {"details": "tablet with 1 mg AG-EE 623 ZW, 6 volunteers"}, "[7]": {"details": "tablet with 2 mg AG-EE 388 ZW, 12 volunteers"}}, "note": "Where two headings read alike, the source gives them in different places."}
{"smiles": "CCOc1cc(CC(=O)N[C@H](CC(C)C)c2ccccc2N2CCCCC2)ccc1C(=O)O", "note": "[AG-EE 624 ZW, (R)(-)-2-Äthoxy-4-[N-[1-(2-piperidino-phenyl)-3-methyl-1-butyl]aminocarbonylmethyl]-benzoesäure]", "values": [{"measurement": "blutzuckersenkende Wirkung", "setting": "[1]", "result": "unwirksame Enantiomere"}, {"measurement": "Plasma-Konzentrationen nach Racemat-Gabe", "setting": "[2]", "result": "in unerwartet höheren Maximal- und Dauer-Spiegeln anwesend"}]}
{"smiles": "CCOc1cc(CC(=O)N[C@@H](CC(C)C)c2ccccc2N2CCCCC2)ccc1C(=O)O", "note": "[AG-EE 623 ZW, (S)(+)-2-Äthoxy-4-[N-[1-(2-piperidino-phenyl)-3-methyl-1-butyl]aminocarbonylmethyl]-benzoesäure]", "values": [{"measurement": "blutzuckersenkende Wirkung", "setting": "[1]", "result": "wirksame Enantiomere"}, {"measurement": "Dauer der Wirkung (Wirkung hält an)", "setting": "[1]; rat", "result": "> 6", "unit": "Stunden"}, {"measurement": "concentration at 4 h", "setting": "[3]; [6]", "result": 0.7, "unit": "ng/mL"}, {"measurement": "concentration at 5 h", "setting": "[3]; [6]", "result": 0.3, "unit": "ng/mL"}, {"measurement": "concentration at 6 h", "setting": "[3]; [6]", "result": 0.3, "unit": "ng/mL"}, {"measurement": "Cmax", "setting": "[3]; [6]", "result": "28 ± 18", "unit": "ng/mL"}, {"measurement": "Elimination (Plasma-Konzentration)", "setting": "[2]", "result": "wesentlich schneller als das unwirksame Enantiomere, AG-EE 624 ZW, eliminiert"}, {"measurement": "Eintritt der blutzuckersenkenden Wirkung", "setting": "[4]; human", "result": "rascher ein als nach AG-EE 388 ZW-Gabe"}, {"measurement": "Wirkungsdauer", "setting": "[4]; human", "result": "relativ lange Wirkungsdauer"}, {"measurement": "Abfall der Spiegel", "setting": "[4]; in vivo", "result": "fallen rascher gegen null als die AG-EE 388 ZW-Spiegel"}, {"measurement": "Plasmaspiegel in Relation zur erzielten Blutzuckersenkung", "setting": "[4]; in vivo", "result": "wesentlich niedrigere Plasmaspiegel"}, {"measurement": "Toxizität", "setting": "[5]; rats, 1000 mg/kg p.o.", "result": "praktisch untoxisch"}, {"measurement": "verstorbene Tiere", "setting": "[5]; single 1000 mg/kg p.o., suspension in 1% methylcellulose, 5 male and 5 female rats, 14 days", "result": "kein Tier"}]}
{"smiles": "CCOc1cc(CC(=O)NC(CC(C)C)c2ccccc2N2CCCCC2)ccc1C(=O)O", "note": "(racemic) [AG-EE 388 ZW, 2-Äthoxy-4-[N-[1-(2-piperidino-phenyl)-3-methyl-1-butyl]aminocarbonylmethyl]-benzoesäure, reference compound]", "values": [{"measurement": "concentration at 4 h", "setting": "[3]; [7]", "result": "19 ± 8", "unit": "ng/mL"}, {"measurement": "concentration at 5 h", "setting": "[3]; [7]", "result": "13 ± 6", "unit": "ng/mL"}, {"measurement": "concentration at 6 h", "setting": "[3]; [7]", "result": "10 ± 6", "unit": "ng/mL"}, {"measurement": "Cmax", "setting": "[3]; [7]", "result": "84 ± 25", "unit": "ng/mL"}]}
